In article PMC2397535 (Breast Cancer Research : BCR, 2008):

Key:
[1] = test system: BT-474; test: antiproliferative effect (GI50), breast cancer cell line; assay type: cell-based; details: Homo sapiens
[2] = test system: BT20; test: as above; assay type: cell-based; details: Homo sapiens, BT-20
[3] = test system: MDA-MB-157; test: as above; assay type: cell-based; details: Homo sapiens
[4] = test system: MDA-MB-231; test: as above; assay type: cell-based; details: Homo sapiens
[5] = test system: MDA-MB-468; test: as above; assay type: cell-based; details: Homo sapiens
[6] = test system: SkBr3; test: as above; assay type: cell-based; details: Homo sapiens, SK-BR-3
[7] = test system: MCF-7; test: as above; assay type: cell-based; details: Homo sapiens, MCF7
[8] = target: HSP90-p23 complex (Homo sapiens, UniProt P07900)
Description: For immunoprecipitation, 300 μg of total protein was immunoprecipitated with 5 μg of rat anti-HSP90α monoclonal antibody (SPA-840, clone 9D2, isotype: IgG2a; Assay Designs, Inc.). Proteins were resolved by 12% SDS-PAGE and transferred to PVDF membranes.

GI50 [1]: 17.4 ± 5.2 nM
GI50 [2]: 18.9 ± 4.8 nM
GI50 [3]: 29.5 ± 20.8 nM
GI50 [4]: 2060 nM
GI50 [5]: 1660 nM
GI50 [6]: 11.9 ± 8 nM
GI50 [7]: 69 ± 18.3 nM
amount of HSP90α co-immunoprecipitating with p23 [8]: concentration-dependent decrease
time to complete HSP90-p23 dissociation (full inhibition) [8]: ≤ 15 min
SMILES: C=CCNC1=C2C[C@@H](C)C[C@H](OC)[C@H](O)[C@@H](C)/C=C(\C)[C@H](OC(N)=O)[C@@H](OC)/C=C\C=C(/C)C(=O)NC(=CC1=O)C2=O [17-AAG, 17-allylamino-17-demethoxygeldanamycin, reference compound]
